Results as given in the CheMixHub viscosity set.
Values joined by “and” are separate entries in the source; they are usually repeats but may differ in a detail not shown here. Equal entries are not always repeated. ± gives the uncertainty stated by the source.

Assay: xn = mol fraction of the nth substance listed

With `CC(C)C(=O)O` + O the viscosity (293.15 K, 101.33 kPa, x1 = 0.011) was 1.181 ± 0.012 mPa·s, the viscosity (293.15 K, 101.33 kPa, x1 = 0.0222) was 1.448 ± 0.014 mPa·s and the viscosity (293.15 K, 101.33 kPa, x1 = 0.0348) was 1.558 ± 0.016 mPa·s. For the same compound, the viscosity (293.15 K, 101.33 kPa, x1 = 0.0486) was 1.779 ± 0.018 mPa·s, the viscosity (299.35 K, 101.33 kPa, x1 = 0.11) was 2.904 ± 0.021 mPa·s and the viscosity (299.36 K, 101.33 kPa, x1 = 0.11) was 2.896 ± 0.021 mPa·s. For the same compound, the viscosity (299.37 K, 101.33 kPa, x1 = 0.11) was 2.882 ± 0.021 mPa·s, the viscosity (299.38 K, 101.33 kPa, x1 = 0.11) was 2.868 ± 0.021 mPa·s and the viscosity (299.39 K, 101.33 kPa, x1 = 0.11) was 2.846 ± 0.021 mPa·s and 2.836 ± 0.021 mPa·s. The viscosity (299.4 K, 101.33 kPa, x1 = 0.11) was 2.813 ± 0.021 mPa·s, the viscosity (299.43 K, 101.33 kPa, x1 = 0.11) was 2.767 ± 0.02 mPa·s and the viscosity (299.45 K, 101.33 kPa, x1 = 0.11) was 2.751 ± 0.02 mPa·s. For the same compound, the viscosity (299.48 K, 101.33 kPa, x1 = 0.11) was 2.711 ± 0.02 mPa·s, the viscosity (299.5 K, 101.33 kPa, x1 = 0.11) was 2.69 ± 0.02 mPa·s and the viscosity (299.56 K, 101.33 kPa, x1 = 0.11) was 2.645 ± 0.02 mPa·s. It also gave a viscosity (299.64 K, 101.33 kPa, x1 = 0.11) of 2.606 ± 0.019 mPa·s, a viscosity (299.72 K, 101.33 kPa, x1 = 0.11) of 2.571 ± 0.019 mPa·s and a viscosity (299.85 K, 101.33 kPa, x1 = 0.11) of 2.541 ± 0.019 mPa·s. For the same compound, the viscosity (299.96 K, 101.33 kPa, x1 = 0.11) was 2.506 ± 0.019 mPa·s, the viscosity (300.15 K, 101.33 kPa, x1 = 0.11) was 2.466 ± 0.018 mPa·s and the viscosity (300.4 K, 101.33 kPa, x1 = 0.11) was 2.422 ± 0.018 mPa·s. For the same compound, the viscosity (301.15 K, 101.33 kPa, x1 = 0.11) was 2.317 ± 0.017 mPa·s, the viscosity (302.15 K, 101 kPa, x1 = 0.0106) was 0.9416 ± 0.0059 mPa·s and the viscosity (302.15 K, 101 kPa, x1 = 0.0222) was 1.066 ± 0.0065 mPa·s. For the same compound, the viscosity (302.15 K, 101 kPa, x1 = 0.0348) was 1.21 ± 0.0073 mPa·s, the viscosity (302.15 K, 101 kPa, x1 = 0.0486) was 1.388 ± 0.0083 mPa·s and the viscosity (302.15 K, 101 kPa, x1 = 0.0545) was 1.469 ± 0.0087 mPa·s. For the same compound, the viscosity (302.15 K, 101 kPa, x1 = 0.0638) was 1.6 ± 0.0094 mPa·s, the viscosity (302.15 K, 101 kPa, x1 = 0.0737) was 1.74 ± 0.01 mPa·s and the viscosity (302.15 K, 101 kPa, x1 = 0.0806) was 1.837 ± 0.011 mPa·s. For the same compound, the viscosity (302.15 K, 101 kPa, x1 = 0.0915) was 1.999 ± 0.012 mPa·s, the viscosity (302.15 K, 101 kPa, x1 = 0.1114) was 2.213 ± 0.013 mPa·s and the viscosity (302.15 K, 101 kPa, x1 = 0.12) was 2.285 ± 0.013 mPa·s. For the same compound, the viscosity (302.15 K, 101 kPa, x1 = 0.129) was 2.348 ± 0.013 mPa·s, the viscosity (302.15 K, 101 kPa, x1 = 0.1433) was 2.423 ± 0.014 mPa·s and the viscosity (302.15 K, 101 kPa, x1 = 0.1698) was 2.499 ± 0.014 mPa·s. For the same compound, the viscosity (302.15 K, 101 kPa, x1 = 0.1999) was 2.568 ± 0.015 mPa·s, the viscosity (302.15 K, 101 kPa, x1 = 0.2347) was 2.614 ± 0.015 mPa·s and the viscosity (302.15 K, 101 kPa, x1 = 0.323) was 2.632 ± 0.015 mPa·s. It also gave a viscosity (302.15 K, 101 kPa, x1 = 0.4499) of 2.493 ± 0.014 mPa·s, a viscosity (302.15 K, 101 kPa, x1 = 0.4996) of 2.403 ± 0.014 mPa·s and a viscosity (302.15 K, 101 kPa, x1 = 0.7953) of 1.685 ± 0.0098 mPa·s. For the same compound, the viscosity (302.15 K, 101 kPa, x1 = 0.9529) was 1.27 ± 0.0076 mPa·s, the viscosity (302.27 K, 101.33 kPa, x1 = 0.11) was 2.211 ± 0.017 mPa·s and the viscosity (303.11 K, 101.33 kPa, x1 = 0.11) was 2.144 ± 0.016 mPa·s. The viscosity (303.15 K, 101.33 kPa, x2 = 0.352) was 1.51 ± 0.04 mPa·s, the viscosity (303.15 K, 101.33 kPa, x2 = 0.55) was 2.12 ± 0.056 mPa·s and the viscosity (303.15 K, 101.33 kPa, x2 = 0.677) was 2.43 ± 0.064 mPa·s. It also gave a viscosity (303.15 K, 101.33 kPa, x2 = 0.765) of 2.51 ± 0.066 mPa·s, a viscosity (303.15 K, 101.33 kPa, x2 = 0.83) of 2.42 ± 0.064 mPa·s and a viscosity (303.15 K, 101.33 kPa, x2 = 0.88) of 2 ± 0.053 mPa·s. It also gave a viscosity (303.15 K, 101.33 kPa, x2 = 0.919) of 1.58 ± 0.042 mPa·s, a viscosity (303.15 K, 101.33 kPa, x2 = 0.951) of 1.28 ± 0.034 mPa·s and a viscosity (303.15 K, 101.33 kPa, x2 = 0.978) of 1.02 ± 0.027 mPa·s.
